Experimental findings from ChEMBL document CHEMBL4359850, “Synthesis, in vivo and in silico anticonvulsant activity studies of new derivatives of 2-(2,4-dioxo-1,4-dihydroquinazolin-3(2H)-yl)acetamide” (Eur J Med Chem, 2019) are described below.

For data set [1], the system named is Mus musculus. The experiment in a line: Anticonvulsive activity in pentylenetetrazole-induced seizure albino mouse model assessed as latecy time at 100 mg/kg, ig administered 30 mins prior to pentylenetetrazole challenge and mesured for 60 mins (reference value: 5.79 +/- 0.58 min). Format: functional.
Data set [2] has as its system Mus musculus. The experiment in a line: Anticonvulsive activity in pentylenetetrazole-induced seizure albino mouse model assessed as lethality at 100 mg/kg, ig administered 30 mins prior to pentylenetetrazole challenge and mesured for 60 mins (reference value: 91.7%). Format: functional.
In data set [3] the test system is Mus musculus. The data set is described as follows: Anticonvulsive activity in pentylenetetrazole-induced seizure albino mouse model assessed as proportion of animals with clonic convulsion at 100 mg/kg, ig administered 30 mins prior to pentylenetetrazole challenge and mesured for 60 mins (reference value: 100 %). Format: functional.
Data set [4] can be described thus: Toxicity in albino mouse assessed as motor coordination impairment by measuring animal fall-off from rod before 3 mins at 100 mg/kg, ig administered 30 mins prior to test by rotarod test (reference value: 33%). Format: organism-based. As to conditions: in vivo, po, 0.05 h. For orientation: Falling from the rotarod earlier than controls is read as motor impairment.

A short description of data set [5]: Acute toxicity in albino mouse assessed as effect on skeletal muscle tone at 1000 to 5000 mg/kg, ig measured for 14 days. It is filed as organism-based. As to conditions: in vivo, po, 336 h.
The nature of data set [6]: Acute toxicity in albino mouse assessed as death at 1000 to 5000 mg/kg, ig measured for 14 days. Format: organism-based. As to conditions: in vivo, po, 336 h.
Data set [7] is described as follows: Acute toxicity in albino mouse assessed as hypersalivation at 1000 to 5000 mg/kg, ig measured for 14 days. It is filed as organism-based. As to conditions: in vivo, po, 336 h.
A short description of data set [8]: Toxicity in albino mouse assessed as motor coordination impairment by measuring animal fall-off from rod before 2 mins at 100 mg/kg, ig administered 30 mins prior to test by rotarod test (reference value: 33%). It is filed as organism-based. As to conditions: in vivo, po.
Data set [9] is described as follows: Acute toxicity in albino mouse assessed as diarrhoea at 1000 to 5000 mg/kg, ig measured for 14 days. It is filed as organism-based. As to conditions: in vivo, po, 336 h.
For data set [10], the system named is Mus musculus. The experiment in a line: Anticonvulsive activity in pentylenetetrazole-induced seizure albino mouse model assessed as decrease in severity of convulsion at 100 mg/kg, ig administered 30 mins prior to pentylenetetrazole challenge and mesured for 60 mins relative to control. Format: functional.
Data set [11] deals with Mus musculus. The data set is described as follows: Anticonvulsive activity in pentylenetetrazole-induced seizure albino mouse model assessed as number of clonic and tonic convulsion at 100 mg/kg, ig administered 30 mins prior to pentylenetetrazole challenge and mesured per animal for 60 mins (reference value: 3.58 +/- 0.42). Format: functional.
Data set [12] concerns Mus musculus. The experiment in a line: Anticonvulsive activity in pentylenetetrazole-induced seizure albino mouse model assessed as proportion of animals with tonic convulsion at 100 mg/kg, ig administered 30 mins prior to pentylenetetrazole challenge and mesured for 60 mins (reference value: 100%). Format: functional.
Data set [13] in a line: Toxicity in albino mouse assessed as motor coordination impairment by measuring animal fall-off from rod before 5 mins at 100 mg/kg, ig administered 30 mins prior to test by rotarod test (reference value: 50%). It is filed as organism-based. The conditions noted are these: in vivo, po.
A short description of data set [14]: Acute toxicity in albino mouse assessed as blepharoptosis at 1000 to 5000 mg/kg, ig measured for 14 days. Format: organism-based. The conditions noted are these: in vivo, po, 336 h.
In data set [15] the test system is Mus musculus. The experiment in a line: Anticonvulsive activity in pentylenetetrazole-induced seizure albino mouse model assessed as decrease in duration of convulsive period at 100 mg/kg, ig administered 30 mins prior to pentylenetetrazole challenge and mesured for 60 mins relative to control. Format: functional.
A short description of data set [16]: Acute toxicity in ig dosed albino mouse measured for 14 days. Format: organism-based. The conditions noted are these: in vivo, po.
Data set [17] can be described thus: Toxicity in albino mouse assessed as motor coordination impairment by measuring animal fall-off from rod before 1 min at 100 mg/kg, ig administered 30 mins prior to test by rotarod test (reference value: 17%). It is filed as organism-based. As to conditions: in vivo, po.
Data set [18] deals with Mus musculus. The data set is described as follows: Anticonvulsive activity in pentylenetetrazole-induced seizure albino mouse model assessed as lengthened latecy of convulsion at 100 mg/kg, ig administered 30 mins prior to pentylenetetrazole challenge and mesured for 60 mins relative to control. It is filed as functional.
A short description of data set [19]: Acute toxicity in albino mouse assessed as effect on muscle movement at 1000 to 5000 mg/kg, ig measured for 14 days. It is filed as organism-based. As to conditions: in vivo, po, 336 h.
Data set [20] concerns Mus musculus. The data set is described as follows: Anticonvulsive activity in pentylenetetrazole-induced seizure albino mouse model assessed as duration time of convulsion period at 100 mg/kg, ig administered 30 mins prior to pentylenetetrazole challenge and mesured for 60 mins (reference value: 12 +/- 1.34 min). It is filed as functional.
The subject of data set [21] is Mus musculus. The experiment in a line: Anticonvulsive activity in albino mouse assessed as protection against pentylenetetrazole-induced seizure by measuring severity of convulsion at 100 mg/kg, ig administered 30 mins prior to pentylenetetrazole challenge and mesured for 60 mins (reference value: 5.83 +/- 0.17). It is filed as functional.
Data set [22] is described as follows: Acute toxicity in albino mouse assessed as decrease in motor activity at 3000 to 5000 mg/kg, ig measured after 30 mins to 1 hr. The conditions noted are these: in vivo, po. Format: organism-based.
A short description of data set [23]: Acute toxicity in albino mouse assessed as lateral position at 1000 to 5000 mg/kg, ig measured for 14 days. It is filed as organism-based. As to conditions: in vivo, po, 336 h.

Usually LD50 stands for the dose at which mortality reaches 50%. High values mean a less toxic substance, low ones a more toxic substance. Turning to `O=C(Cn1c(=O)[nH]c2ccccc2c1=O)NCc1ccc(Cl)cc1Cl`, the Time in the data set with Mus musculus [1] is reported as 20.38 min; in the data set on Mus musculus [20] it was 0.45 min. The Activity was 0% in the data set with Mus musculus [2]; 80% in the data set with Mus musculus [3]; 50% in data set [4]; “Non-Toxic” in data set [5]; “Non-Toxic” in data set [6]; “Non-Toxic” in data set [7]. Besides, the Activity was 50% in [8]; “Non-Toxic” in data set [9]; 1 with Mus musculus [11]; 40% with Mus musculus [12]; 67% in data set [13]; “Non-Toxic” in [14]. The Activity in [17] was 17%; in [19], “Non-Toxic”; with Mus musculus [21], 2.8; in [22], “Toxic”; in data set [23], “Non-Toxic”. The “fold change (FC)” value is recorded as 2.1 with Mus musculus [10], 26.7 in the data set on Mus musculus [15] and 3.5 in the data set with Mus musculus [18]. In addition, the LD50 at 336 h in [16] is > 5000 mg/kg.
